Columns and labels:
[1] = Stability Against Metabolism by Liver Microsome; type: in vitro ADME; conditions: dog liver microsome, NADPH-producing system, phosphate buffer pH 7.4, 37° C.; n=2, mean
Protocol: Stability Against Metabolism by Liver Microsome:
A dog liver microsome was prepared by a standard method. In a phosphate buffer (pH 7.4), a test substance, a liver microsome and NADPH-producing system [0.5 mM, β-NADP (NADP: nicotinamide adenine dinucleotide phosphate), 1 mM magnesium chloride, 5 mM glucose-6-phosphate, 150units/ml glucose-6-phosphate dehydrogenase (each as final concentration in reaction system)] were mixed and incubated at 37° C. The concentration of the test substance after the discontinuation of the reaction was determined by high pressure liquid chromatography to obtain % residue (n=2, mean).

Rat Adjuvant Arthritis = assay: Action Against Rat Adjuvant Arthritis (paw swelling suppression); type: in vivo, rat (male Lewis); conditions: 3.13 mg/kg once daily for 14 days, suspension in 0.5% methyl cellulose; left hind paw volume at day 14; N=6; **: p < 0.05 vs control (Dunnett's test)

Row | SMILES | Residue (%) [1] [%] | Swelling suppression rate (%) (Rat Adjuvant Arthritis)
1 | COc1cc(-c2c(Cl)c(CN3C(=O)CCC3=O)nc3sc4c(c23)CCN(C(C)=O)C4)ccc1O [Example 22, 7-acetyl-3-chloro-5,6,7,8-tetrahydro-4-(4-hydroxy-3-methoxyphenyl)-2-(succinimidomethyl)thieno[2,3-b:5,4-c']dipyridine] | – | 75
2 | COc1ccc(-c2c(Cl)c(CN3C(=O)CCC3=O)nc3sc4c(c23)CCNC4)cc1OC [Example 2, 3-chloro-4-(3,4-dimethoxyphenyl)-5,6,7,8-tetrahydro-2-(succinimidomethyl)thieno[2,3-b:5,4-c']dipyridine] | 87.8 | 92
3 | COc1ccc(-c2c(Cl)c(CN3C(=O)CCC3=O)nc3sc4c(c23)CCN(C(C)=O)C4)cc1OC [Example 18, 7-acetyl-3-chloro-4-(3,4-dimethoxyphenyl)-5,6,7,8-tetrahydro-2-(succinimidomethyl)thieno[2,3-b:5,4-c']dipyridine] | – | 92
4 | COc1ccc(-c2c(Br)c(CN3C(=O)CCC3=O)nc3sc4c(c23)CCNC4)cc1 [Example 4, 3-bromo-5,6,7,8-tetrahydro-4-(4-methoxyphenyl)-2-(succinimidomethyl)thieno[2,3-b:5,4-c']dipyridine] | – | 85

The next lines start with results.

Row | Residue (%) [1] [%] | SMILES | Swelling suppression rate (%) (Rat Adjuvant Arthritis)
5 | 96.3 | O=C1CCC(=O)N1Cc1nc2sc3c(c2c(-c2ccc(O)cc2)c1Cl)CCNC3 [Example 15, 3-chloro-4-(4-hydroxyphenyl)-5,6,7,8-tetrahydro-2-(succinimidomethyl)thieno[2,3-b:5,4-c']dipyridine] | –
6 | 94.1 | CCOc1ccc(-c2c(Cl)c(CN3C(=O)CCC3=O)nc3sc4c(c23)CCNC4)cc1 [Example 11, 3-chloro-4-(4-ethoxyphenyl)-5,6,7,8-tetrahydro-2-(succinimidomethyl)thieno[2,3-b:5,4-c']dipyridine] | 98
7 | 90.5 | COc1ccc(-c2c(Cl)c(CN3C(=O)CCC3=O)nc3sc4c(c23)CCNC4)cc1 [Example 1, 3-chloro-5,6,7,8-tetrahydro-4-(4-methoxyphenyl)-2-(succinimidomethyl)thieno[2,3-b:5,4-c']dipyridine] | 94

— patent US6214838A, “Thienodipyridine derivatives, production and use thereof” (Takeda Chemical Industries, Ltd., priority 1998, dated 2001)
